According to PMC3655251, “Urea Output by L3 Teladorsagia circumcincta and some Properties of Two Urea Producing Enzymes” (Iranian Journal of Parasitology, 2013):

Legend:
[1] = system: T1, creatine amidinohydrolase; experiment: coupled urease / glutamate dehydrogenase assay, NADH oxidation at […] nm; assay type: biochemical, Teladorsagia circumcincta; settings: L3 homogenate, 100 mM phosphate buffer, 30 °C, no metal added; read-out: apparent K m
T1 construct: native activity in crude homogenate of L3 larvae, not purified; no nematode gene homologue found by the authors

[2] = system: T2, arginine amidinohydrolase; experiment: as above; assay type: biochemical, Teladorsagia circumcincta; settings: L3 homogenate, 100 mM phosphate buffer, 30 °C, no metal added; read-out: apparent K m
T2 construct: native enzyme in crude homogenate of L3 larvae, not purified

Row | Compound | Km [1] [µM] | Km [2] [µM]
1 | CN(CC(=O)O)C(=N)N [creatine] | 1100 ± 100 | 
2 | N=C(N)NCCC[C@H](N)C(=O)O [arginine] |  | 700 ± 200
